{"source": "patent US6043366A", "about": "(priority 1997, dated 2000)", "origin": "cited, not measured here", "key": {"LC 132 receptor": {"test_system": "LC 132 receptor", "conditions": "cells in culture"}}}
{"substance": "OFQ: seventeen amino-acid-long peptide (F-G-G-F-T-G-A-R-K-S-A-R-K-L-A-N-Q), isolated from rat brain, natural ligand to the G-protein coupled receptor OFQ-R (FGGFTGARKSARKLANQ; Nociceptin; UniProt Q13519 130-146, looked up)", "values": [{"measurement": "adenylate cyclase in CHO(LC 132+) cells", "setting": "LC 132 receptor", "result": "inhibits adenylate cyclase"}, {"measurement": "hyperalgesia", "setting": "mice; administered intra-cerebroventricularly to mice", "result": "induces hyperalgesia"}, {"measurement": "locomotive activity", "setting": "mice; injected intra-cerebroventricularly in mice", "result": "slowed down locomotive activity"}]}
